Measured values published in patent US8796302B2 (priority 2004, dated 2014).

What was measured:
[1] = tested on: dopaminergic neurons in rat primary mesencephalic neuron-glia cultures; assay: [3H]DA uptake in LPS-treated mesencephalic neuron-glia cultures; format: cell-based; details: LPS 5 ng/ml; for concentration of greatest level of protection (DA uptake): 10^−12-10^−16 M tested; for enhancement of [3H]DA uptake after exposure to LPS: 30 min pretreatment, 7 days
Experimental: Neuron-glia cultures were prepared from the ventral mesencephalic tissues of embryonic day 13-14 Fisher F344 rats or day 12-13 wild-type C57BL/6J (gp91phox^+/+) mice. Dissociated cells were seeded at 1×10^5/well and 5×10^5/well to poly-D-lysine-coated 96-well and 24-well plates, respectively. Cells were maintained at about 37° C. in a humidified atmosphere of 5% CO2 and 95% air, in minimal essential medium (MEM) containing 10% fetal bovine serum (FBS), 10% horse serum (HS), 1 gm/l glucose, 2 mM L-glutamine, 1 mM sodium pyruvate, 100 μM nonessential amino acids, 50 U/ml penicillin, and 50 μg/ml streptomycin. Seven-day-old cultures were used for treatment.
Dextromethorphan (obtained from Sigma-Aldrich (St. Louis, Mo.) as dextromethorphan hydrobromide) was freshly prepared as a stock solution (1 mM) in ddH2O and sterile-filtered right before use. For treatment of the cultures, the DM was serially diluted (10×) with fresh culture medium containing 2% of fetal bovine and horse serum. The neuron-glia cultures were pretreated with 10^−5-10^−17M DM 30 minutes prior to treatment with 10 ng/ml of LPS.
Seven days after treatment, the degeneration of dopaminergic neurons was assessed by [^3H]-dopamine (DA) uptake assays. The [^3H]-DA uptake assays were performed as follows. Cultures were washed twice with warm Krebs-Ringer buffer (KRB, 16 mM sodium phosphate, 119 mM NaCl, 4.7 mM KCl, 1.8 mM CaCl2, 1.2 mM MgSO4, 1.3 mM EDTA, and 5.6 mM glucose; pH7.4) and then incubated for about 20 minutes at about 37° C. with 1 μM [^3H]-DA in KRB in order to allow for the uptake of DA. Afterwards, the cultures were washed (three times) with ice-cold KRB and the cells were collected in 1 N NaOH. Radioactivity was determined by liquid scintillation counting.
(§1) This example tests whether or not post-treatment with DM is still neuroprotective in LPS-induced neurotoxicity. Neuron-glia co-cultures as prepared in Example 1 were first treated with LPS (20 ng/ml) for twelve hours, and then LPS was removed by removing the media from the cultures and washing twice with PBS. Different concentrations of DM (10^−5, 10^−10, and 10^−14 M) were then added to the cultures and incubation was continued for another 6 or 7 days. The DA uptake and the superoxide production were measured as in Example 1 and 5.
Neuron-glia cell cultures were prepared as in Example 1, and pretreated with the various peptide fragments of Table 1 (peptide fragments were obtained from BACHEM) for 30 minutes followed by addition of 5 ng/ml of LPS. DA neurotoxicity was measured as an Example 1 at 7 days post treatment.
DA neurotoxicity was measured at 7 days post treatment as in Example 1. Dopaminergic neuronal death was determined at 7 days post treatment using immunocytochemical staining as in Example 2.
Neuron-glia cultures were prepared from the ventral mesencephalic tissues of embryonic day 13-14 rats. Dissociated cells were seeded at 1×10^5/well and 5×10^5/well to poly-D-lysine-coated 96-well and 24-well plates, respectively.

[2] = tested on: TH-IR (dopaminergic) neurons in mesencephalic neuron-glia cultures; assay: TH-IR neuron count and morphology in LPS-treated neuron-glia cultures; format: cell-based, rat; details: LPS 5 ng/ml; for concentration of peak protection against LPS-induced DA neuron cell loss: 10^−12-10^−16 M tested; for LPS-induced damage of TH immuno-reactive neurons: 10^−14 M
superoxide = assay: Superoxide release (SOD-inhibitable cytochrome c reduction) after LPS; format: cell-based, rat; details: 10^−14 M, enriched-microglia cultures, LPS 10 ng/ml
Experimental: The release of superoxide was determined by measuring the superoxide dismutase (SOD)-inhibitable reduction of cytochrome c. To measure the immediate release of superoxide from microglia-enriched or neuron-glia after stimulation, cultures grown in 96-well plates were switched to phenol red-free HBSS (50 μl/well). To each well was added 50 μl of HBSS containing vehicle or DM. The cultures were then incubated at about 37° C. for about 30 min followed by 50 μl of ferricytochrome c (100 μM) in HBSS, with and without 600 U/ml SOD, 50 μl of vehicle or LPS in HBSS. The absorbance at 550 nm was read with a SpectraMax Plus microplate spectrophotometer (Molecular Devices, Sunnyvale, Calif.).
as §1, with “5. Results are expressed as a percentage of the control cultures and are the mean±S.E.M of three to six experiments with triplicates in each experiment. ##, P<0.01 compared with control culture; *, P<0.05 compared with the LPS-treated culture.” for “5.”
Primary enriched-microglia cultures were prepared as in Example 1. […] The intracellular ROS concentrations and superoxide amounts were measured as in Example 5. The data are expressed as the percent of the control cultures and are the mean±SEM of three experiments performed in triplicate. *P<0.05, **P<0.01, compared to control.

[3] = tested on: intracellular reactive oxygen species; assay: Intracellular ROS (DCFH oxidation) after LPS; format: cell-based, rat; details: 10^−14 M, enriched-microglia cultures, LPS 10 ng/ml
Experimental: The production of intracellular reactive oxygen species was measured by DCFH oxidation. The DCFH-DA (Molecular Probes, Eugene, Oreg.) reagent passively diffuses into cells in which it is hydrolyzed by intracellular esterase to liberate 2′-7′-dichlorofluoressein which, during reaction with oxidizing species, yields a highly fluorescent compound 2′-7′-dichlorofluorescein (DCF) that is trapped inside the cell. For each measurement, a fresh stock solution of CM-H2-DCFDA (5 mM) was prepared in dimethylsulfoxide. CM-H2-DCFDA, diluted to a final concentration of 1 μM in phenol red-free HBSS containing 2% FBS and 2% HS, was added to cultures and incubated for about 30 min at about 37° C. After washing two times with warm HBSS, vehicle or stimulators in HBSS were added to cultures. After incubation for about 30 min at about 37° C., fluorescence intensity was measured at 485 nm for excitation and 530 nm for emission using a SpectraMax Gemini XS fluorescence microplate reader (Molecular Devices).
Assay of intracellular ROS is performed as follows. 5-(and −6)-Chloromethyl-2′,7′-dichlorodihydrofluorescein diacetate (CM-H2-DCFDA) (Molecular Probes, Eugene, Oreg.), a chloromethyl derivative of H2-DCFDA, passively diffuses into cells in which it is hydrolyzed by intracellular esterases to liberate 2′-7′-dichlorofluorescein (DCF) which, during reaction with oxidizing species, yields a highly fluorescent compound that is trapped inside the cell. […] Cells were seeded at 1×10^5/well in 96-well plates for one day followed by treatment with 0.6 mM or 1.2 mM VPA for 24 h. The cultures were used for the assay of intracellular ROS.
After washing two times with warm Hank's balanced salt solution (HBSS), CM-H2-DCFDA, diluted to a final concentration of 1 μM in phenol red-free HBSS, was added to cultures and incubated for 30 min at 37° C. Then cultures were added with 0.6 or 1.2 mM VPA in HBSS again for 30 min and followed the treatment with 100 ng/ml LPS for 2 hours at 37° C., fluorescence intensity was measured at 485 nm for excitation and 530 nm for emission using a SpectraMax Gemini XS fluorescence microplate reader (Molecular Devices, Sunnyvale, Calif.).

[4] = tested on: dopaminergic neurons in PHOX^+/+ and PHOX^−/− mouse neuron-glia cultures; assay: [3H]DA uptake in neuron-glia cultures of PHOX+/+ and PHOX−/− mice; format: cell-based; details: PHOX−/− cultures, 10^−13-10^−14 M, LPS 5 ng/ml
Experimental: To further study the role of ROS in DM-elicited neuroprotection, neuron-glia cultures were prepared from NADPH oxidase-deficient (PHOX^−/−) and wild-type (PHOX^+/+) mice.
(§2) Neurotoxicity was assessed by DA uptake as described in Example 1. TNFα production was measured by ELISA and iROS was determined by DCFDA as in Example 5. Results are expressed as a percentage of the control culture in FIG. 7A, pg/ml in FIG. 7B, and difference from control in FIG. 7C, respectively, and are the mean±S.E.M. of five individual experiments with triplicates in each experiment. *, P<0.05 compared with LPS culture.
(§3) The rat and mouse ventral mesencephalic neuron-glia cultures were prepared as in Example 1. […] DA neurotoxicity was measured by using the [^3H] DA uptake assay as in Example 1. The data are expressed as the percent of the control cultures and are the mean±SEM. The release of TNFα was measured with a commercially available enzyme-linked immunosorbent assay kit. *P<0.05, **P<0.01, compared to control. The amount of TNFα was measured as in Example 2.

TNFα = TNFα production in neuron-glia cultures of PHOX+/+ and PHOX−/− mice; format: cell-based, mouse; details: LPS 5 ng/ml
Experimental: as §2, §3

gp91/p22 = target: T1, gp91/p22 (Homo sapiens, UniProt P04839); assay: [3H]naloxone binding to COS-7 cells transfected with gp91/p22; details: COS-7 gp91/p22 cells, [3H]naloxone 2 nM, displaced with 10 μM cold naloxone
T1 construct: expressed in transfected cells; host or cells: COS-7 (stably transfected); intact cells or membrane preparations
T1 sequence (P04839 whole entry): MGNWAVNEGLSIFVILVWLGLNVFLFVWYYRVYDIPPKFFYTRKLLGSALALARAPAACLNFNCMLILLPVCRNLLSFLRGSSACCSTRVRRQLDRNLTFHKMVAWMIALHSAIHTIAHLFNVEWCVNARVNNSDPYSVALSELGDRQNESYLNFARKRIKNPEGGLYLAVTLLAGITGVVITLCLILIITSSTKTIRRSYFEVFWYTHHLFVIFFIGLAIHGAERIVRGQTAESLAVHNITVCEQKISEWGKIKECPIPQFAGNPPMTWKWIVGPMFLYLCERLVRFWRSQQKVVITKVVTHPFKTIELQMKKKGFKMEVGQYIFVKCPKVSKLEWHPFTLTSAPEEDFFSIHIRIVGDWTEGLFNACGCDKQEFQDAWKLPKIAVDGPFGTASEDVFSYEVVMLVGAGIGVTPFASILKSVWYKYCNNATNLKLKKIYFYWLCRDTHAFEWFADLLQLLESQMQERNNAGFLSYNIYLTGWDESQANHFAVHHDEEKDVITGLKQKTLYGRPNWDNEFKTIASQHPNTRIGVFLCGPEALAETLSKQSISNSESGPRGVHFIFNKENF
T1 sequence (P13498 whole entry partner): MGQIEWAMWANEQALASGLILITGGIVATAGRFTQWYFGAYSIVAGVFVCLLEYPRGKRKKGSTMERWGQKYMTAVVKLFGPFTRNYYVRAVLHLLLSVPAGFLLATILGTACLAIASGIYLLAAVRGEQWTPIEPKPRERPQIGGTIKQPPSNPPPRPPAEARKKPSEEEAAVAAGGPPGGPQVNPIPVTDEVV
Experimental: Binding affinities of naloxone for COS-7 cells transfected with gp91/p22 was determined using either [^3H]-(+)Naloxone or [^3H]-(−)Naloxone (2 nM; PerkinEhner Life Sciences) as ligands and displaced with 10 μM of cold (−) Naloxone in HBBS containing 0.1% (W/V) fatty acids free albumin (lot B22558, Calbiochem). COS-7 cells transfected with gp91/p22 and COS-7 cells that were not transfected (WT) were detached using Versene (1:5000, GibcoBRL, Life technologies). For intact cell assays, after washing twice with HBSS, cells were transferred to micro centrifuge tubes at 10^6 cells per tube.
To acquire membrane preparations, cells were lysed in buffer ([…] Tris, pH=7.4, 2 mM EDTA, 10 μg/ml CLAP) and homogenized. Lysate was transferred to a 50 ml conical tube, where there were centrifuged at 250 g for about 10 minutes at about 4 C. The supernatant was then transferred to another tube and spun at 100,000 G for about 90 minutes. The supernatant was then discarded and the protein pellet was re-suspended in 2 ml of lysis buffer. […]
All competition reactions of either intact cells or membrane preparations were allowed to proceed at 4° C. […] After washing with HBSS four times, the filters were collected and radioactivity retained on the filters was determined by liquid Scintillation counting. All values are expressed as percentages relative to the binding capacity of the wild type control.

[5] = tested on: dopaminergic neurons in rat primary mesencephalic neuron-glia cultures; assay: [3H]DA uptake in LPS-treated mesencephalic neuron-glia cultures; format: cell-based; details: femtomolar concentrations, LPS 5 ng/ml
[6] = PHOX−/− mice, 30 min pretreatment
[7] = control (PHOX+/+) mice, 10^−14 M

Row | Compound | concentration of greatest level of protection (DA uptake) [1] | enhancement of [3H]DA uptake after exposure to LPS [1] | concentration of peak protection against LPS-induced DA neuron cell loss [2] | LPS-induced damage of TH immuno-reactive neurons [2] | microglial superoxide response (superoxide) | reduction of intracellular ROS concentrations [3] | neuroprotection (DA uptake) [4] | TNFα reduction in response to LPS (TNFα; [6]) | TNFα reduction in response to LPS (TNFα; [7]) | binding capacity relative to control COS-7 cells (gp91/p22) | neuroprotection against LPS-induced neurodegeneration [5]
1 | C=CCN1CC[C@]23c4c5ccc(O)c4O[C@H]2C(=O)CC[C@@]3(O)[C@H]1C5 [naloxone, (5α)-4,5-Epoxy-3,14-dihydroxy-17-(2-propenyl)morphinan-6-one] | 10^−14 M | approximately 35% | 10^−14 M | protected TH immuno-reactive neurons from LPS-induced damage | nearly control levels | 65% | failed to show neuroprotection | failed to show any TNFα reduction | showed a reduction of TNFα | 150-180% | –
2 | glycine-glycine-phenylalanine [GGF] | 10^−14 M | approximately 35% | 10^−14 M | protected TH immuno-reactive neurons from LPS-induced damage | nearly control levels | 65% | failed to show neuroprotection | failed to show any TNFα reduction | showed a reduction of TNFα | – | minimal peptide sequence required for neuroprotection
